Measured values: patent US8614327B2 (Vertex Pharmaceuticals Incorporated, priority 2004, dated 2013)

Target: T1, ΔF508-CFTR (Homo sapiens, UniProt P13569, DEL508-508)
T1 construct: expressed in transfected cells
Assay: Membrane potential optical (FRET/VIPR) assay, identification of potentiator compounds
Format: cell-based
Settings: Table 3, assay not given; for % Activity: relative efficacy
From the text: I) Membrane Potential Optical Methods for Assaying ΔF508-CFTR Modulation Properties of Compounds The optical membrane potential assay utilized voltage-sensitive FRET sensors described by Gonzalez and Tsien (See, Gonzalez, J. E. and R. Y. Tsien (1995) “Voltage sensing by fluorescence resonance energy transfer in single cells” Biophys J 69(4): 1272-80, and Gonzalez, J. E. and R. Y. Tsien (1997) “Improved indicators of cell membrane potential that use fluorescence resonance energy transfer” Chem Biol 4(4): 269-77) in combination with instrumentation for measuring fluorescence changes such as the Voltage/Ion Probe Reader (VIPR) (See, […]. Oades, et al. (1999) “Cell-based assays and instrumentation for screening ion-channel targets” Drug Discov Today 4(9): 431-439). These voltage sensitive assays are based on the change in fluorescence resonant energy transfer (FRET) between the membrane-soluble, voltage-sensitive dye, DiSBAC2(3), and a fluorescent phospholipid, CC2-DMPE, which is attached to the outer leaflet of the plasma membrane and acts as a FRET donor. Changes in membrane potential (Vm) cause the negatively charged DiSBAC2(3) to redistribute across the plasma membrane and the amount of energy transfer from CC2-DMPE changes accordingly. The changes in fluorescence emission were monitored using VIPR which is an integrated liquid handler and fluorescent detector designed to conduct cell-based screens in 96- or 384-well microtiter plates. To identify potentiators of ΔF508-CFTR, a double-addition HTS assay format was developed. During the first addition, a Cl^--free medium with or without test compound was added to each well. […] (in mM) NaCl 160, KCl 4.5, CaCl2 2, MgCl2 1, HEPES 10, pH 7.4 with NaOH. • Chloride-free bath solution: Chloride salts in Bath Solution #1 are substituted with gluconate salts. • CC2-DMPE: Prepared as a 10 mM stock solution in DMSO and stored at -20° C. • DiSBAC2(3): Prepared as a 10 mM stock in DMSO and stored at -20° C. NIH3T3 mouse fibroblasts stably expressing ΔF508-CFTR are used for optical measurements of membrane potential. […] For all optical assays, the cells were seeded at 30,000/well in 384-well matrigel-coated plates and cultured for 2 hrs at 37° C. before culturing at 27° C. for 24 hrs. for the potentiator assay.

T1 sequence (P13569 with tags, fused parts or gaps DEL508-508): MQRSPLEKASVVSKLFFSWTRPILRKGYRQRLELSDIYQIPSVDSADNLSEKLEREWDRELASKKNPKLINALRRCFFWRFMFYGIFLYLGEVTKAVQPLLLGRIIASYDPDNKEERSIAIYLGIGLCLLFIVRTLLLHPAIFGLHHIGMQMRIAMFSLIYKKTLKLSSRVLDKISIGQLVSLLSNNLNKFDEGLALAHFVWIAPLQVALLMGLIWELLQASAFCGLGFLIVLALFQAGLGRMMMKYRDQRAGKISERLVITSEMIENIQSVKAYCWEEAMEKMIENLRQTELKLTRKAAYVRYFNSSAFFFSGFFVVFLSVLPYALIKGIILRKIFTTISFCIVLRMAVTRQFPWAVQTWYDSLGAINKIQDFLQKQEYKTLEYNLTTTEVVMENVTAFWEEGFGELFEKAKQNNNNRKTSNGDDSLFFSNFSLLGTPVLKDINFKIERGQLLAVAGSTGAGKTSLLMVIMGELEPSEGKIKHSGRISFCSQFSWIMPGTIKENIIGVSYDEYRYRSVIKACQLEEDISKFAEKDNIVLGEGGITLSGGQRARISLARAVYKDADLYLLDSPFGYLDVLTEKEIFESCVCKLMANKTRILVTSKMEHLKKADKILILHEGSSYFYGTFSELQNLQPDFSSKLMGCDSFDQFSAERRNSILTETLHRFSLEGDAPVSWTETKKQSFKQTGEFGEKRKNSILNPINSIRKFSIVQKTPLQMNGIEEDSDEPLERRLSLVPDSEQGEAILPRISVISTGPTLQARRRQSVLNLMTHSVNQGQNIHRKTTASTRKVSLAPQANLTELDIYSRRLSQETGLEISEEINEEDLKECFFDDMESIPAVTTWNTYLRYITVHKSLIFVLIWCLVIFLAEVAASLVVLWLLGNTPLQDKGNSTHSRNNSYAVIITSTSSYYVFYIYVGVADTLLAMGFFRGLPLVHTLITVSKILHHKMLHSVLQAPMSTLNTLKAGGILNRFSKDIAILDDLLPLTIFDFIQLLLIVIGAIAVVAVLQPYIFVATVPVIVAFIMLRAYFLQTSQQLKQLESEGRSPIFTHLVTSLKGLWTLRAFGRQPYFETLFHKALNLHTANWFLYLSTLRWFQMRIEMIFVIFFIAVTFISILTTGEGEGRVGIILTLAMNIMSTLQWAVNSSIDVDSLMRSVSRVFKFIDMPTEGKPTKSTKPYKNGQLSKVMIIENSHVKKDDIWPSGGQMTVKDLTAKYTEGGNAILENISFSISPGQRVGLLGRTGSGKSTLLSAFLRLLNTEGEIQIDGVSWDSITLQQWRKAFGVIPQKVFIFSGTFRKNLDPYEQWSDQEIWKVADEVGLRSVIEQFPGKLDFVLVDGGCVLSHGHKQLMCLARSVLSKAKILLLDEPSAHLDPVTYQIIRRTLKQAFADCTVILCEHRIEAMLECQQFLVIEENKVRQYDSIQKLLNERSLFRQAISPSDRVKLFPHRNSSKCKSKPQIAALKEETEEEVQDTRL

| EC50 [µM] | % Activity | SMILES |
| --- | --- | --- |
| < 10 | ++ (between 25% to 100%) | CCC(CC)(CC)c1cc(F)c(NC(=O)c2cnc3ccccc3c2O)cc1O [Compound 34, N-[4-(1,1-diethylpropyl)-2-fluoro-5-hydroxy-phenyl]-4-hydroxy-quinoline-3-carboxamide] |
| < 10 | ++ (between 25% to 100%) | CC1(C)CCCNc2cc(NC(=O)c3c[nH]c4ccccc4c3=O)ccc21 [Compound 35, 1,4-dihydro-N-(2,3,4,5-tetrahydro-5,5-dimethyl-1H-benzo[b]azepin-8-yl)-4-oxoquinoline-3-carboxamide] |
| < 10 | ++ (between 25% to 100%) | CC(C)c1ccccc1NC(=O)c1c[nH]c2ccccc2c1=O [Compound 36, N-(2-isopropylphenyl)-4-oxo-1H-quinoline-3-carboxamide] |
| < 10 | ++ (between 25% to 100%) | O=C(Nc1cccc2cc[nH]c12)c1c[nH]c2ccccc2c1=O [Compound 37, N-(1H-indol-7-yl)-4-oxo-1H-quinoline-3-carboxamide] |
| < 10 | ++ (between 25% to 100%) | O=C(Nc1ccccc1-c1cc2ccccc2[nH]1)c1c[nH]c2ccccc2c1=O [Compound 38, N-[2-(1H-indol-2-yl)phenyl]-4-oxo-1H-quinoline-3-carboxamide] |
| 10 to 25 | ++ (between 25% to 100%) | COc1nc2ccccc2c(OC)c1C(=O)Nc1cc(NC(=O)OC(C)(C)C)ccc1C(C)(C)C [Compound 39, [3-[(2,4-dimethoxy-3-quinolyl)carbonylamino]-4-tert-butyl-phenyl]aminoformic acid tert-butyl ester] |
| 25 to 60 | + (<25%) | O=C(Nc1ccccc1CCO)c1c[nH]c2ccccc2c1=O [Compound 40, N-[2-(2-hydroxyethyl)phenyl]-4-oxo-1H-quinoline-3-carboxamide] |
|  | ++ (between 25% to 100%) | CCCc1ccc(N)cc1NC(=O)c1c[nH]c2ccccc2c1=O [Compound 41, N-(5-amino-2-propyl-phenyl)-4-oxo-1H-quinoline-3-carboxamide] |
| < 10 | ++ (between 25% to 100%) | O=C(Nc1ccccc1Oc1ncc(C(F)(F)F)cc1Cl)c1c[nH]c2ccccc2c1=O [Compound 42, N-[2-[[3-chloro-5-(trifluoromethyl)-2-pyridyl]oxy]phenyl]-4-oxo-1H-quinoline-3-carboxamide] |
| < 10 | ++ (between 25% to 100%) | CCOc1cccc(-c2cc(C(C)(C)C)c(O)cc2NC(=O)c2c[nH]c3ccccc3c2=O)c1 [Compound 43, N-[2-(3-ethoxyphenyl)-5-hydroxy-4-tert-butyl-phenyl]-4-oxo-1H-quinoline-3-carboxamide] |
| 10 to 25 | ++ (between 25% to 100%) | Cc1nc2cc(NC(=O)c3c[nH]c4ccccc4c3=O)ccc2s1 [Compound 44, N-(2-methylbenzothiazol-5-yl)-4-oxo-1H-quinoline-3-carboxamide] |
| 10 to 25 | ++ (between 25% to 100%) | O=C(Nc1cc(Cl)cc(NS(=O)(=O)CCN2CCOCC2)c1)c1c[nH]c2ccccc2c1=O [Compound 46, N-[3-chloro-5-(2-morpholinoethylsulfonylamino)phenyl]-4-oxo-1H-quinoline-3-carboxamide] |
| < 10 | ++ (between 25% to 100%) | CC(C)c1ccc(NC(=O)c2c[nH]c3ccccc3c2=O)c(C(F)(F)F)c1 [Compound 47, N-[4-isopropyl-2-(trifluoromethyl)phenyl]-4-oxo-1H-quinoline-3-carboxamide] |
| < 10 | ++ (between 25% to 100%) | O=C(Nc1cc(Cl)ccc1F)c1c[nH]c2ccccc2c1=O [Compound 48, N-(5-chloro-2-fluoro-phenyl)-4-oxo-1H-quinoline-3-carboxamide] |
| < 10 | ++ (between 25% to 100%) | COc1cccc(OC)c1-c1ccccc1NC(=O)c1c[nH]c2ccccc2c1=O [Compound 49, N-[2-(2,6-dimethoxyphenyl)phenyl]-4-oxo-1H-quinoline-3-carboxamide] |
| < 10 | ++ (between 25% to 100%) | Cc1cc(C)c(NC(=O)c2c[nH]c3ccccc3c2=O)c(C)c1 [Compound 50, 4-oxo-N-(2,4,6-trimethylphenyl)-1H-quinoline-3-carboxamide] |

| EC50 [µM] | % Activity | SMILES |
| --- | --- | --- |
| < 10 | ++ (between 25% to 100%) | CC1CCN(S(=O)(=O)c2ccc3[nH]cc(C(=O)Nc4cc5[nH]ccc5cc4C(C)(C)C)c(=O)c3c2)CC1 [Compound 51, 6-[(4-methyl-1-piperidyl)sulfonyl]-4-oxo-N-(5-tert-butyl-1H-indol-6-yl)-1H-quinoline-3-carboxamide] |
| < 10 | ++ (between 25% to 100%) | Cc1cccc(-c2ccccc2NC(=O)c2c[nH]c3ccccc3c2=O)c1 [Compound 52, N-[2-(m-tolyl)phenyl]-4-oxo-1H-quinoline-3-carboxamide] |
| 25 to 60 | + (<25%) | O=C(Nc1ccncc1)c1c[nH]c2ccccc2c1=O [Compound 53, 4-oxo-N-(4-pyridyl)-1H-quinoline-3-carboxamide] |
| 25 to 60 | + (<25%) | O=C(Nc1cccc2nsnc12)c1c[nH]c2ccccc2c1=O [Compound 54, 4-oxo-N-(8-thia-7,9-diazabicyclo[4.3.0]nona-2,4,6,9-tetraen-5-yl)-1H-quinoline-3-carboxamide] |
| 25 to 60 | + (<25%) | COc1c(N)cc(C(C)(C)C)cc1NC(=O)c1c[nH]c2ccccc2c1=O [Compound 55, N-(3-amino-2-methoxy-5-tert-butyl-phenyl)-4-oxo-1H-quinoline-3-carboxamide] |
| < 10 | ++ (between 25% to 100%) | O=C(Nc1cc2c(cc1O)CCCC2)c1c[nH]c2ccccc2c1=O [Compound 56, 1,4-dihydro-N-(1,2,3,4-tetrahydro-6-hydroxynaphthalen-7-yl)-4-oxoquinoline-3-carboxamide] |
| 10 to 25 | +++ (>100%) | CCC1(c2ccc(NC(=O)c3c[nH]c4ccccc4c3=O)cc2)CCC(=O)NC1=O (stereo not shown) [Compound 57, N-[4-(3-ethyl-2,6-dioxo-3-piperidyl)phenyl]-4-oxo-1H-quinoline-3-carboxamide] |
| < 10 | ++ (between 25% to 100%) | Nc1cc(NC(=O)c2c[nH]c3ccccc3c2=O)ccc1OC(F)(F)F [Compound 58, N-[3-amino-4-(trifluoromethoxy)phenyl]-4-oxo-1H-quinoline-3-carboxamide] |
| < 10 | +++ (>100%) | COc1ccc(C(C)C)cc1-c1ccccc1NC(=O)c1c[nH]c2ccccc2c1=O [Compound 59, N-[2-(5-isopropyl-2-methoxy-phenyl)phenyl]-4-oxo-1H-quinoline-3-carboxamide] |
| < 10 | ++ (between 25% to 100%) | CC(C)c1ccc(NC(=O)OC(C)(C)C)cc1NC(=O)c1c[nH]c2ccccc2c1=O [Compound 60, [4-isopropyl-3-[(4-oxo-1H-quinolin-3-yl)carbonylamino]phenyl]aminoformic acid tert-butyl ester] |
| < 10 | ++ (between 25% to 100%) | Cc1cccc(NC(=O)c2c[nH]c3ccccc3c2=O)c1C [Compound 61, N-(2,3-dimethylphenyl)-4-oxo-1H-quinoline-3-carboxamide] |
| < 10 | ++ (between 25% to 100%) | O=C(Nc1cccc(OC(F)(F)F)c1)c1c[nH]c2ccccc2c1=O [Compound 62, 4-oxo-N-[3-(trifluoromethoxy)phenyl]-1H-quinoline-3-carboxamide] |
| < 10 | ++ (between 25% to 100%) | O=C(Nc1ccccc1-c1ccc(F)cc1F)c1c[nH]c2ccccc2c1=O [Compound 63, N-[2-(2,4-difluorophenyl)phenyl]-4-oxo-1H-quinoline-3-carboxamide] |
| 25 to 60 | + (<25%) | O=C(Nc1ccc2[nH]c(=O)[nH]c2c1)c1c[nH]c2ccccc2c1=O [Compound 64, 4-oxo-N-(2-oxo-1,3-dihydrobenzoimidazol-5-yl)-1H-quinoline-3-carboxamide] |
| < 10 | ++ (between 25% to 100%) | O=C(Nc1cc2[nH]ccc2cc1-c1cccnc1)c1c[nH]c2ccccc2c1=O [Compound 65, 4-oxo-N-[5-(3-pyridyl)-1H-indol-6-yl]-1H-quinoline-3-carboxamide] |
